In US12102620B2, “Combination therapy for the treatment of mastocytosis” (Deciphera Pharmaceuticals, LLC, priority 2018, dated 2024):
pIC50: −log10 of the molar value. “Also recorded” adds a separate entry of the source.

Experiments:
Type in all cases: cell-based
[1] = system: EV-transfected HMC1.2 mast cells; assay: Colony outgrowth after drug removal, empty vector transfected cells; settings: all concentrations, 5 days after drug removal
Text: (§1) Drug treatments were removed and colony outgrowth of viable cells was monitored after 5 or 13 additional days.
(§2) Drug treatments were removed and colony outgrowth of viable cells was monitored after 5 or 10 additional days.

[2] = system: N-ras G12D-transfected HMC1.2 cells; assay: Colony outgrowth after drug removal, N-ras G12D transfected cells; settings: all concentrations, 5 days after drug removal
Text: as §1, §2

[3] = system: HMC1.2 mast cells (KIT D816V); assay: Colony outgrowth in soft agar after drug removal; settings: all concentrations, 10 days treatment, 5 days after drug removal
Text: Drug treatments were removed and colony outgrowth of viable cells was monitored after 5 additional days.

[4] = system: HMC1.1 KIT V560G mast cell line; assay: Cell proliferation, HMC1.1 KIT V560G mast cell line; settings: 72 h, read-out: IC50, inhibition of cell proliferation
Description: (§3) Assays were conducted in 96 well plates with 10,000 cells seeded per well.

[5] = system: HMC1.2 KIT V560G/D816V mast cell line; assay: Cell proliferation, HMC1.2 KIT V560G/D816V mast cell line; settings: 72 h, read-out: IC50, inhibition of cell proliferation
Description: as §3

Row | Structure (SMILES) | colony outgrowth, single agent [1] | colony outgrowth, single agent [2] | colony outgrowth, single agent [3] | pIC50 [4] | pIC50 [5]
1 | CCn1c(=O)c(-c2cc(NC(=O)Nc3ccccc3)c(F)cc2Br)cc2cnc(NC)cc21 [Compound A, 1-[4-bromo-5-[1-ethyl-7-(methylamino)-2-oxo-1,2-dihydro-1,6-naphthyridin-3-yl]-2-fluorophenyl]-3-phenylurea] | colony outgrowth at all concentrations; also recorded: eradication was not observed | colony outgrowth at all concentrations; also recorded: eradication was not observed |  |  | 
2 | Cn1cnc2c(F)c(Nc3ccc(Br)cc3F)c(C(=O)NOCCO)cc21 [binimetinib] |  |  | colony outgrowth at all concentrations; also recorded: eradication was not observed |  | 
3 | O=C(c1ccc(F)c(F)c1Nc1ccc(I)cc1F)N1CC(O)([C@@H]2CCCCN2)C1 [cobimetinib, reference compound] | colony outgrowth at all concentrations; also recorded: eradication was not observed | colony outgrowth at all concentrations; also recorded: eradication was not observed | colony outgrowth at all concentrations |  | 
4 | CCn1c(=O)c(-c2cc(NC(=O)Nc3ccccc3)c(F)cc2Br)cc2cnc(N)cc21 [Compound B, 1-(5-(7-amino-l-ethyl-2-oxo-1,2-dihydro-1,6-naphthyridin-3-yl)-4-bromo-2-fluorophenyl)-3-phenylurea] |  |  | colony outgrowth at all concentrations; also recorded: eradication was not observed | 8.64 | 7.21
